From patent US20090118332A1, “Therapeutic Agents - 551” (AstraZeneca AB, priority 2006, published 2009)

Each compound was assayed against T1, human Fatty Acid Synthase (Homo sapiens, UniProt P49327) (assay: Human FAS enzyme assay (decrease in NADPH fluorescence)). Conditions: % inhibition at a concentration of 100 μmolar.
T1 construct: made in house
Format: biochemical
Outline: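 In-house human FAS was preincubated with compound and NADPH for 15 min at room temperature in 0.1 M Tris pH 7.5 with EDTA, glutathione and BSA. Malonyl CoA and acetyl CoA (500 μM and 150 μM in the added mix) were then added for 60 min. IC50 came from time-zero-subtracted NADPH fluorescence (340/460 nm).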

T1 sequence (P49327 whole entry): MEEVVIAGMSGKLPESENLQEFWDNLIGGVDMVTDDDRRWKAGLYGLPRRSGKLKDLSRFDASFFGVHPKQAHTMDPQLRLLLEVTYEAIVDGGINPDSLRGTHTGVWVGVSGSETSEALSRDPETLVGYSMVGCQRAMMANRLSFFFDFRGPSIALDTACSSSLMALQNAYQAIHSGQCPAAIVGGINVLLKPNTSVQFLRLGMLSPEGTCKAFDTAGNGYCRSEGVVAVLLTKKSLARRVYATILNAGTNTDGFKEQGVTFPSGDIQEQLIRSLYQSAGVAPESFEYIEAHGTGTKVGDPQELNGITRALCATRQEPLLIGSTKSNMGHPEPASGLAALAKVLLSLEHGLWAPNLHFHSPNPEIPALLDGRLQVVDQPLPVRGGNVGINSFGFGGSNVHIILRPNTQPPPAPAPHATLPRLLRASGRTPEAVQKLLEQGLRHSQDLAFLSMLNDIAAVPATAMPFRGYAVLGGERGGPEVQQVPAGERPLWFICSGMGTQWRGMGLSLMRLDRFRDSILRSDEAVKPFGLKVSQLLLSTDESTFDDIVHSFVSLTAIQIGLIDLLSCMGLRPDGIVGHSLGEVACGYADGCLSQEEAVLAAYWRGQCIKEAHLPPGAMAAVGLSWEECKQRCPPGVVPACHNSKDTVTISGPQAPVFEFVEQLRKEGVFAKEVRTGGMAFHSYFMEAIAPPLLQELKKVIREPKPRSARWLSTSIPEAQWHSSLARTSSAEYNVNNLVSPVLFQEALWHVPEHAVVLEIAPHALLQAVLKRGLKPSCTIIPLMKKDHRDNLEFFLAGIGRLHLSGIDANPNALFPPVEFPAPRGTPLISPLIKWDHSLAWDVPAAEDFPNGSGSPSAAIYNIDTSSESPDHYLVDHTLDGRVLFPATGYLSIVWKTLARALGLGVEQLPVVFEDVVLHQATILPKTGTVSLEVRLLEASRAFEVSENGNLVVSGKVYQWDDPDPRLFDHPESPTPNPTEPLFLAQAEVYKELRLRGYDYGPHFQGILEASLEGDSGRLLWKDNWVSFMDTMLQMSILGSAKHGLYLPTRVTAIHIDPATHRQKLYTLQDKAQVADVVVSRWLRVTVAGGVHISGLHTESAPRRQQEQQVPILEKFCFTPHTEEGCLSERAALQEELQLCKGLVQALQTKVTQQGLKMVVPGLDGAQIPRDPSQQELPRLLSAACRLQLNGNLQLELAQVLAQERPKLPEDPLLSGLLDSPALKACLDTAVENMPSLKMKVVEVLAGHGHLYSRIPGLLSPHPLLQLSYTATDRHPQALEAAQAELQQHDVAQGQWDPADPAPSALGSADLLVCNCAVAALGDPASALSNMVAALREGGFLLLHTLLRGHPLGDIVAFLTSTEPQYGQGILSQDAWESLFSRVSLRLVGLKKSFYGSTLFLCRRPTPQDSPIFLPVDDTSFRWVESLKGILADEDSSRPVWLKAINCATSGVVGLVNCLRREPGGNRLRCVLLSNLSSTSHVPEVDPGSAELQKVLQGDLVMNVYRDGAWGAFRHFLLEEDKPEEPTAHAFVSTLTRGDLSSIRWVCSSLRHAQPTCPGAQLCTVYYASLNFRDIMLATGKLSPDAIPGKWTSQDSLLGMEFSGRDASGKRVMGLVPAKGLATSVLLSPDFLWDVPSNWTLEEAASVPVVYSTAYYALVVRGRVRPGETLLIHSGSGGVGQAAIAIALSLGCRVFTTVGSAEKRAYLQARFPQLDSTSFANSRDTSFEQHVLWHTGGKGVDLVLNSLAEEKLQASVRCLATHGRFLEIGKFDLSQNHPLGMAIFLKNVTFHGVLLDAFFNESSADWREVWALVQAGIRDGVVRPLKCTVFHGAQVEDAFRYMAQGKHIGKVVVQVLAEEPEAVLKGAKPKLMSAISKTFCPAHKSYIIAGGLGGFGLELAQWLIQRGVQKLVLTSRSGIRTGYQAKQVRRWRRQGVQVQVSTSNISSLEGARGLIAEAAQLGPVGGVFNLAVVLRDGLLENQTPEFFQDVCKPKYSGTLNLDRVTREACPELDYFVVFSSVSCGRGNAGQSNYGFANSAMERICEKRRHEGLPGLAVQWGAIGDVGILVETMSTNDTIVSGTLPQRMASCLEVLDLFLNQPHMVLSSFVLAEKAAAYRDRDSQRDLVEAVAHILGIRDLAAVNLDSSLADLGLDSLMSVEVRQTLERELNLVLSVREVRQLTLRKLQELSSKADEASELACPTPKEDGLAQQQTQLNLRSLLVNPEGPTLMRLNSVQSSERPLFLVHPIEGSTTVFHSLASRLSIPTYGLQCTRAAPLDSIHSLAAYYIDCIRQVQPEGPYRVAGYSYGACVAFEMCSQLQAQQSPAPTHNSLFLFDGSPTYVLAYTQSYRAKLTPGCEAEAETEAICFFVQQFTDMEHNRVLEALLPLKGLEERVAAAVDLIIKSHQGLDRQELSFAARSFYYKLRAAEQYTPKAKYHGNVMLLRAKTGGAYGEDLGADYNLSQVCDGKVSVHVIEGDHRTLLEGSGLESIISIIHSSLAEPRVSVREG

Row | inhibition at 100 µM [%] | SMILES
1 | 90.5 | Cc1ccc(C(=O)N2CCC(c3ccc(C#N)cc3)CC2)cc1NC(=O)N1CC(NS(C)(=O)=O)C1 [Example 313, N-[5-[4-(4-cyanophenyl)piperidine-1-carbonyl]-2-methyl-phenyl]-3-methanesulfonamido-azetidine-1-carboxamide]
2 | 87.4 | Cc1ccc(C(=O)N2CCC(c3ccc(C#N)cc3)CC2)cc1NC(=O)N1CC(NS(=O)(=O)N(C)C)C1 [Example 314, N-[5-[4-(4-cyanophenyl)piperidine-1-carbonyl]-2-methyl-phenyl]-3-(dimethylsulfamoylamino)azetidine-1-carboxamide]
3 | 93.9 | Cc1ccc(C(=O)N2CCC(c3ccc(C#N)cc3)CC2)cc1NC(=O)N[C@H]1CC[C@H](N)C1 [Example 318, 3-[(1S,3S)-3-aminocyclopentyl]-1-[5-[4-(4-cyanophenyl)piperidine-1-carbonyl]-2-methyl-phenyl]urea]
4 | 94.4 | Cc1ccc(C(=O)N2CCC(c3ccc(C#N)cc3)CC2)cc1NC(=O)N[C@H]1CC[C@H](NS(C)(=O)=O)C1 [Example 320, 1-[5-[4-(4-cyanophenyl)piperidine-1-carbonyl]-2-methyl-phenyl]-3-[(1S,3S)-3-methanesulfonamidocyclopentyl]urea]
5 | 96.7 | CC(=O)N[C@H]1CC[C@H](NC(=O)Nc2cc(C(=O)N3CCC(c4ccc(C#N)cc4)CC3)ccc2C)C1 [Example 321, N-[(1S,3S)-3-[[5-[4-(4-cyanophenyl)piperidine-1-carbonyl]-2-methyl-phenyl]carbamoylamino]cyclopentyl]acetamide]
6 | 90.5 | Cc1ccc(C(=O)N2CCC(c3ccc(C#N)cc3)CC2)cc1NC(=O)N1CCN(S(C)(=O)=O)CC1 [Example 322, N-[5-[4-(4-cyanophenyl)piperidine-1-carbonyl]-2-methyl-phenyl]-4-methylsulfonyl-piperazine-1-carboxamide]
7 | 94 | Cc1ccc(C(=O)N2CCC(c3ccc(C#N)cc3)CC2)cc1NC(=O)N[C@H]1CC[C@H](NS(=O)(=O)N(C)C)C1 [Example 323, 1-[5-[4-(4-cyanophenyl)piperidine-1-carbonyl]-2-methyl-phenyl]-3-[(1S,3S)-3-(dimethylsulfamoylamino)cyclopentyl]urea]
8 | 97.1 | CCS(=O)(=O)N[C@H]1CC[C@H](NC(=O)Nc2cc(C(=O)N3CCC(c4ccc(C#N)cc4)CC3)ccc2C)C1 [Example 324, 3-[5-[4-(4-cyanophenyl)piperidine-1-carbonyl]-2-methyl-phenyl]-1-[(1S,3S)-3-(ethylsulfonylamino)cyclopentyl]urea]
9 | 72.6 | Cc1ccc(C(=O)N2CCC(c3ccc(F)cc3)CC2)cc1NC(=O)NC(C)C [Example 325, 1-[5-[4-(4-fluorophenyl)piperidine-1-carbonyl]-2-methyl-phenyl]-3-propan-2-yl-urea]
10 | 93.1 | Cc1ccc(C(=O)N2CCC(c3cccc(C#N)c3)CC2)cc1NC(=O)NC(C)C [Example 327, 1-[5-[4-(3-cyanophenyl)piperidine-1-carbonyl]-2-methyl-phenyl]-3-propan-2-yl-urea]
11 | 82.4 | CCOC(=O)N1CCN(C(=O)Nc2cc(C(=O)N3CCC(c4ccc(C#N)cc4)CC3)ccc2C)CC1 [Example 330, Ethyl 4-[[5-[4-(4-cyanophenyl)piperidine-1-carbonyl]-2-methyl-phenyl]carbamoyl]piperazine-1-carboxylate]
12 | 84.2 | Cc1ccc(C(=O)N2CCC(c3ccc(C#N)cc3)CC2)cc1NC(=O)N1CCN(C(=O)C(C)C)CC1 [Example 331, N-[5-[4-(4-cyanophenyl)piperidine-1-carbonyl]-2-methyl-phenyl]-4-(2-methylpropanoyl)piperazine-1-carboxamide]
13 | 96.5 | Cc1ccc(C(=O)N2CCC(c3ccc(C#N)cc3)CC2)cc1NC(=O)N1CCN(C(=O)N(C)C)CC1 [Example 332, N-[5-[4-(4-cyanophenyl)piperidine-1-carbonyl]-2-methyl-phenyl]-N′,N′-dimethyl-piperazine-1,4-dicarboxamide]
14 | 78.2 | Cc1ccc(C(=O)N2CCC(c3ccc(C#N)cc3)CC2)cc1NC(=O)NC1(C)CCS(=O)(=O)C1 (centres unmarked) [Example 335, 1-[5-[4-(4-cyanophenyl)piperidine-1-carbonyl]-2-methyl-phenyl]-3-(3-methyl-1,1-dioxo-thiolan-3-yl)urea]
15 | 112 | Cc1ccc(C(=O)N2CCC(c3ccc(C#N)cc3)CC2)cc1NC(=O)N1CCC(S(C)(=O)=O)C1 (centres unmarked) [Example 344, N-[5-[4-(4-cyanophenyl)piperidine-1-carbonyl]-2-methyl-phenyl]-3-methylsulfonyl-pyrrolidine-1-carboxamide]
16 | 96.5 | Cc1ccc(C(=O)N2CCC(c3ccc(C#N)cc3)CC2)cc1NC(=O)N1CC(O)C1 [Example 345, N-[5-[4-(4-cyanophenyl)piperidine-1-carbonyl]-2-methyl-phenyl]-3-hydroxy-azetidine-1-carboxamide]
17 | 75.5 | Cc1ccc(C(=O)N2CCC(c3ccc(C#N)cc3)CC2)cc1NC(=O)N1CCC1 [Example 346, N-[5-[4-(4-cyanophenyl)piperidine-1-carbonyl]-2-methyl-phenyl]azetidine-1-carboxamide]

The next lines start with the compound.

Row | SMILES | inhibition at 100 µM [%]
18 | Cc1ccc(C(=O)N2CCC(c3ccc(C#N)cc3)CC2)cc1NC(=O)N[C@H]1CC[C@H](NC(=O)OC(C)(C)C)C1 [Example 316, tert-butyl N-[(1S,3S)-3-[[5-[4-(4-cyanophenyl)piperidine-1-carbonyl]-2-methyl-phenyl]carbamoylamino]cyclopentyl]carbamate] | 99.6
19 | CC(=O)NCCNC(=O)Nc1cc(C(=O)N2CCC(c3ccc(C(F)(F)F)cc3)CC2)ccc1C [Example 326, N-[2-[[2-methyl-5-[4-[4-(trifluoromethyl)phenyl]piperidine-1-carbonyl]phenyl]carbamoylamino]ethyl]acetamide] | 91.8
20 | COc1ccc(C2CCN(C(=O)c3ccc(C)c(NC(=O)NC(C)C)c3)CC2)cc1 [Example 328, 1-[5-[4-(4-methoxyphenyl)piperidine-1-carbonyl]-2-methyl-phenyl]-3-propan-2-yl-urea] | 86.7
21 | CNC(=O)c1ccc(C2CCN(C(=O)c3ccc(C)c(NC(=O)NC(C)C)c3)CC2)cc1 [Example 329, N-methyl-4-[1-[4-methyl-3-(propan-2-ylcarbamoylamino)benzoyl]-4-piperidyl]benzamide] | 84.3
22 | Cc1ccc(C(=O)N2CCC(c3ccc(C(F)(F)F)cc3)CC2)cc1NC(=O)NC1CCCN(C(=O)OC(C)(C)C)C1 (centres unmarked) [Example 333, tert-butyl 3-[[2-methyl-5-[4-[4-(trifluoromethyl)phenyl]piperidine-1-carbonyl]phenyl]carbamoylamino]piperidine-1-carboxylate] | 90.9
23 | Cc1ccc(C(=O)N2CCC(c3ccc(C(F)(F)F)cc3)CC2)cc1NC(=O)NCCN(C)C [Example 334, 3-(2-dimethylaminoethyl)-1-[2-methyl-5-[4-[4-(trifluoromethyl)phenyl]piperidine-1-carbonyl]phenyl]urea] | 92.6
24 | Cc1ccc(C(=O)N2CCC(c3ccc(C(F)(F)F)cc3)CC2)cc1NC(=O)NCCNC(=O)OC(C)(C)C [Example 336, tert-butyl N-[2-[[2-methyl-5-[4-[4-(trifluoromethyl)phenyl]piperidine-1-carbonyl]phenyl]carbamoylamino]ethyl]carbamate] | 86.9
25 | Cc1ccc(C(=O)N2CCC(c3ccc(C(F)(F)F)cc3)CC2)cc1NC(=O)NC1CCCNC1 (centres unmarked) [Example 337, 1-[2-methyl-5-[4-[4-(trifluoromethyl)phenyl]piperidine-1-carbonyl]phenyl]-3-(3-piperidyl)urea] | 90.1
26 | CC(=O)NCCNC(=O)Nc1cc(C(=O)N2CCC(c3ccc(F)cc3)CC2)ccc1C [Example 338, N-[2-[[5-[4-(4-fluorophenyl)piperidine-1-carbonyl]-2-methyl-phenyl]carbamoylamino]ethyl]acetamide] | 81.3
27 | Cc1ccc(C(=O)N2CCC(c3ccc(F)cc3)CC2)cc1NC(=O)NC1CN(C(=O)OC(C)(C)C)C1 [Example 339, tert-butyl 3-[[5-[4-(4-fluorophenyl)piperidine-1-carbonyl]-2-methyl-phenyl]carbamoylamino]azetidine-1-carboxylate] | 81.3
28 | Cc1ccc(C(=O)N2CCC(c3ccc(C(F)(F)F)cc3)CC2)cc1NC(=O)NCCNS(=O)(=O)N(C)C [Example 340, 3-[2-(dimethylsulfamoylamino)ethyl]-1-[2-methyl-5-[4-[4-(trifluoromethyl)phenyl]piperidine-1-carbonyl]phenyl]urea] | 96
29 | Cc1ccc(C(=O)N2CCC(c3ccc(C(F)(F)F)cc3)CC2)cc1NC(=O)NCCNS(C)(=O)=O [Example 341, 3-(2-methanesulfonamidoethyl)-1-[2-methyl-5-[4-[4-(trifluoromethyl)phenyl]piperidine-1-carbonyl]phenyl]urea] | 95.4
30 | Cc1ccc(C(=O)N2CCC(c3ccc(C(F)(F)F)cc3)CC2)cc1NC(=O)NCCN [Example 342, 3-(2-aminoethyl)-1-[2-methyl-5-[4-[4-(trifluoromethyl)phenyl]piperidine-1-carbonyl]phenyl]urea] | 82.8
31 | Cc1ccc(C(=O)N2CCC(c3ccc(F)cc3)CC2)cc1NC(=O)NC1CCN(C(=O)OC(C)(C)C)C1 (centres unmarked) [Example 343, tert-butyl 3-[[5-[4-(4-fluorophenyl)piperidine-1-carbonyl]-2-methyl-phenyl]carbamoylamino]pyrrolidine-1-carboxylate] | 93.6
32 | Cc1ccc(C(=O)N2CCC(c3ccc(F)cc3)CC2)cc1NC(=O)NCCN(C)C(=O)OC(C)(C)C [Example 347, tert-butyl N-[2-[[5-[4-(4-fluorophenyl)piperidine-1-carbonyl]-2-methyl-phenyl]carbamoylamino]ethyl]-N-methyl-carbamate] | 86.3
